Publication PMC5200928 (ACS Central Science, 2016)

Legend:
ERK1/2 = ERK1/2 degradation in A375 cells, immunoblot; type: cell-based; conditions: for ERK1/2 degradation: then Tz-thalidomide-Me 10 μM 18 h
BRD4 = BRD4 (Homo sapiens, UniProt O60885); assay: BRD4 degradation in HeLa cells, immunoblot; type: cell-based

## Cc1nnc(-c2ccc(CNC(=O)CCCCCOc3cccc4c3C(=O)N(C3CCC(=O)N(C)C3=O)C4=O)cc2)nn1 (stereo not drawn) [Tz-thalidomide-Me]
ERK1/2; Probe 1 4 h
  ERK1/2 degradation: insignificant degradation of ERK1/2
ERK1/2; Probe 1 4 h, listed as methyl-Tz-thalidomide
  ERK1/2 degradation: reduced ERK1/2 degradation
BRD4; JQ1-TCO 10 μM 18 h, then Tz-thalidomide-Me 10 μM 18 h
  BRD4 level: remained unchanged

## CC(C)C[C@H](NC(=O)[C@H](CCc1ccccc1)NC(=O)CN1CCOCC1)C(=O)N[C@@H](Cc1ccccc1)C(=O)N[C@@H](CC(C)C)C(=O)[C@@]1(C)CO1 [carfilzomib]
ERK1/2; 4-h pretreatment with carfilzomib 1 μM, Probe 1 and Tz-thalidomide
  ERK1/2 degradation with proteasome inhibitor: ERK1/2 degradation was prevented
BRD4; 4-h pretreatment with carfilzomib 1 μM, JQ1-TCO and Tz-thalidomide treatment
  BRD4 levels with proteasome inhibitor: BRD4 levels were rescued

## O=C1CCC(N2C(=O)c3ccccc3C2=O)C(=O)N1 (stereo not drawn) [thalidomide]
ERK1/2; Probe 1 4 h, then untagged thalidomide 10 μM and Tz-thalidomide 1 μM 18 h
  ERK1/2 degradation, competition: degradation of ERK1/2 was suppressed
